The results in this text go back to publication PMC11579541, “In vitro, in vivo, and in silico approaches for evaluating the preclinical DMPK profiles of ammoxetine, a novel chiral serotonin and norepinephrine reuptake inhibitor” (Frontiers in Pharmacology, 2024).

Molecules are shown by their SMILES. “And” between values parts separate entries of the source, which are not always exact repeats. Identical values can stand only once. Where only a bound is given, the exact number is not on record here.

Data set [1] can be described thus: PPB assay by ultrafiltration, human plasma. It counts as in vitro ADME, humans. On the procedure: The PPB of ammoxetine was determined using the ultrafiltration method. Triplicate samples of rat, dog, or human plasma were spiked with ammoxetine at three final concentrations (50, 150, and 450 ng/mL). The spiked plasma samples were then incubated in a 37°C air-bath shaker for 1 h until equilibrium was reached. After incubation, 400 μL of the plasma samples were transferred to pre-saturated ultrafiltration devices. These devices were subsequently centrifuged at 13,800×g and 20°C for 20 min to separate the unbound ammoxetine. 100 μL of the test samples were taken and mixed with 100 μL of the IS, L-phencynonate (50 ng/mL), and 300 μL of methanol. Following centrifugation at 13,800×g for 10 min, the supernatants were used to determine the total and free concentrations of ammoxetine in the plasma (C t , C f ) using an LC-MS-MS method. The PPB rate (%) of ammoxetine was calculated by dividing (C t −C f ) by C t .

In data set [2] the target is T1, CYP 2A6 (Homo sapiens, UniProt P11509).
T1 construct: 0.5 mg/mL HLM, 1 mmol/L NADPH, and a cocktail of 10 probe substrates for 9 CYP isoforms; tissue BD (Woburn, USA); host or cells: pooled human liver microsomes
T1 sequence (P11509 1-494): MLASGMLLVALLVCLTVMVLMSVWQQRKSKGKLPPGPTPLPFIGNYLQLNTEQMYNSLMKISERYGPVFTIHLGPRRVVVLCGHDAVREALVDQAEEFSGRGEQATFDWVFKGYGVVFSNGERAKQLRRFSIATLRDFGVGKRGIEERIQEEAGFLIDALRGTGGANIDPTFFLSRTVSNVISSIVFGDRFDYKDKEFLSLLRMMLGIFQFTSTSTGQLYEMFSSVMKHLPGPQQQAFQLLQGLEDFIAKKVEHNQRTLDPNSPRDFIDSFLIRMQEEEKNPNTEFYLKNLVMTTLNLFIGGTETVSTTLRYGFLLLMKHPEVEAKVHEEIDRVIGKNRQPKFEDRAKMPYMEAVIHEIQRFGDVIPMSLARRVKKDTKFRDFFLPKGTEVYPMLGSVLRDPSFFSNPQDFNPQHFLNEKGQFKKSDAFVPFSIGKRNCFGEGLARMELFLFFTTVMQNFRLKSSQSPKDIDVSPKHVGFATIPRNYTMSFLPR
Kind of data set: CYP inhibition, cocktail-substrate method in HLM. It counts as in vitro ADME. The note with it: probe coumarin. On the procedure: (§1) To assess the CYP inhibition profiling of ammoxetine, a high-throughput assay based on the cocktail-substrate method was performed, as described in the literature ([Kim et al., 2005]; [Kozakai et al., 2014]). Microsomal incubations were conducted in triplicate for 30 min at 37°C in a reaction system (200 μL) consisting of […] potassium phosphate buffer (pH 7.4), 0.5 mg/mL HLM, 1 mmol/L NADPH, and a cocktail of 10 probe substrates for 9 CYP isoforms. The final concentration of each CYP-specific substrate was chosen to be close to the Michaelis-Menten constant (K m ) value of the respective substrate ([Kim et al., 2005]; [Lee et al., 2024]). For instance, phenacetin (CYP 1A2) was used at a concentration of 50 μmol/L, coumarin (CYP 2A6) at 5 μmol/L, bupropion (CYP 2B6) at 50 μmol/L, amodiaquine (CYP 2C8) at 5 μmol/L, tolbutamide (CYP 2C9) at 100 μmol/L, S-mephenytoin (CYP 2C19) at 100 μmol/L, dextromethorphan (CYP 2D6) at 5 μmol/L, chlorzoxazone (CYP 2E1) at 50 μmol/L, and testosterone and midazolam (CYP 3A4) at 50 μmol/L. Ammoxetine was evaluated at five concentrations: 0.1, 1, 10, 50, and 100 μmol/L. Additionally, a blank control without ammoxetine was included. The incubation was terminated by adding an equal volume of ice-cold acetonitrile/methanol (1:1, v/v) along with the IS, dexmedetomidine (1 ng/mL). After a 20-fold dilution, the mixture was centrifuged at 13,800×g for 10 min at 4°C. The supernatants were used to measure the levels of metabolites from the respective probe substrates using an LC-MS-MS method. The half-maximal inhibitory concentration (IC50) values were subsequently calculated.

Data set [3] concerns the target T2, CYP 2E1 (Homo sapiens, UniProt P05181).
T2 construct: 0.5 mg/mL HLM, 1 mmol/L NADPH, and a cocktail of 10 probe substrates for 9 CYP isoforms; tissue BD (Woburn, USA); host or cells: pooled human liver microsomes
Put plainly: CYP inhibition, cocktail-substrate method in HLM. It counts as in vitro ADME. The following applies: probe chlorzoxazone. On the procedure: as §1

The target of data set [4] is CYP 2C9 (Homo sapiens, UniProt P11712). Put plainly: Phenotyping with recombinant human CYP 2C9. The format is in vitro ADME. On the set-up: purchased BD (Woburn, USA). The note with it: 5 μmol/L, 25 pmol/mL CYP, 1 h. On the procedure:
(§2) Ammoxetine (final concentration 5 μmol/L) was incubated with recombinant human CYP 3A4, CYP 1A2, CYP 2C9, CYP 2C19, and CYP 2D6 (final concentration 25 pmol/mL) in a 5 mmol/L K2HPO4 buffer at pH 7.4. The incubations were performed in quintuplicate. NADPH (final concentration 1 mmol/L) was added to initiate the incubation process. The mixture was then incubated at 37°C for 1 h. To stop the reaction, 200 μL of ice-cold acetonitrile/methanol (1:1, v/v) containing 500 ng/mL of L-phencynonate (IS) was added. The samples were vortexed for 2 min and centrifuged at 13,800×g and 4°C for 10 min. The supernatants obtained were analyzed using an LC-MS-MS method. To establish appropriate controls, zero-time controls and blank controls in the absence of NADPH were set up in parallel.

Data set [5] concerns the target CYP 3A4 (Homo sapiens, UniProt P08684). Kind of data set: Phenotyping with recombinant human CYP 3A4. It counts as in vitro ADME. On the set-up: purchased BD (Woburn, USA). The following applies: 5 μmol/L, 25 pmol/mL CYP, 1 h. The procedure:
as §2

Chain of CYP 3A4 (P08684 whole entry): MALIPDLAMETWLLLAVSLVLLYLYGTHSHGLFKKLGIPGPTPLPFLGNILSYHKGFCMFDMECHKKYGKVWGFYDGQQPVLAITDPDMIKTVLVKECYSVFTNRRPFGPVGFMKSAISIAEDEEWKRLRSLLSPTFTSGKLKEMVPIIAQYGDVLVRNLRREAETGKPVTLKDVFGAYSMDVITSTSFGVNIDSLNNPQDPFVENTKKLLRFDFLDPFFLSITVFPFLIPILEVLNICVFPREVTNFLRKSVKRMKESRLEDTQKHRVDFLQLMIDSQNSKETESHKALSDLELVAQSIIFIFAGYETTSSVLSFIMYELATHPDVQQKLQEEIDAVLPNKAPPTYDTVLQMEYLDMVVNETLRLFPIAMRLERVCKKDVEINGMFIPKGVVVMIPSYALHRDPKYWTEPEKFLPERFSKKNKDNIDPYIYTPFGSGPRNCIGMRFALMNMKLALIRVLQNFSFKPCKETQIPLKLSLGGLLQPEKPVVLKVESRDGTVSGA
Chain of CYP 2C9 (P11712 whole entry): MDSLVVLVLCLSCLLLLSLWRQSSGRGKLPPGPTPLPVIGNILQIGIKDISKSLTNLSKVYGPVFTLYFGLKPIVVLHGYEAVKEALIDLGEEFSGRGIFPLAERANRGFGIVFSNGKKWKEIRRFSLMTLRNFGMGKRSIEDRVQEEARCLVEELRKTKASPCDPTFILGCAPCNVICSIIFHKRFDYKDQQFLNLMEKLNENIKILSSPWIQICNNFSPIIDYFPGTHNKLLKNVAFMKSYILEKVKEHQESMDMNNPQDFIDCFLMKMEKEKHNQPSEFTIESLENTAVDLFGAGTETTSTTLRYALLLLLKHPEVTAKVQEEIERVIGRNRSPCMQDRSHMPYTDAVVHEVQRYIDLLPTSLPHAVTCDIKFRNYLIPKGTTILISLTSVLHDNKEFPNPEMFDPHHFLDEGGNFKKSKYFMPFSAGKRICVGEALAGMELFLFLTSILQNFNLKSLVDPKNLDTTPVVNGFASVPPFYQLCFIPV
T2 sequence (P05181 whole entry, canonical isoform): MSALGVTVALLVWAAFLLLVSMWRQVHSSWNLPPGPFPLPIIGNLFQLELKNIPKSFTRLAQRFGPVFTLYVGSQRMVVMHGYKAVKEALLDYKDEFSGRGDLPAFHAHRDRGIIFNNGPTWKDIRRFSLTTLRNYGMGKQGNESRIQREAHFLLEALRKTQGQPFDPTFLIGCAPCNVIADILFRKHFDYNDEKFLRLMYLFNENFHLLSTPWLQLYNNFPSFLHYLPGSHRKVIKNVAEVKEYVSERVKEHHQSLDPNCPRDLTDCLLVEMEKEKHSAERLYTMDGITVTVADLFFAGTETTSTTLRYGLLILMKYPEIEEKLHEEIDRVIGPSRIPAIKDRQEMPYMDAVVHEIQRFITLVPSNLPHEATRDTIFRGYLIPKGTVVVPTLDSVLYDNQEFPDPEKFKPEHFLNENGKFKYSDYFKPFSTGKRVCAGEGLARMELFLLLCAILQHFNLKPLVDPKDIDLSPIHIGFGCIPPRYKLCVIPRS

`CNCC[C@H](Oc1cccc2c1OCO2)c1cccs1` [ammoxetine]: the fraction unbound at 1 h, 50 ng/mL in data set [1] (50 ng/mL, read-out: Percentage of ammoxetine-protein binding rate (%) (converted)) was 0.415. Also, the fraction unbound at 1 h, 150 ng/mL in data set [1] (150 ng/mL, read-out: Percentage of ammoxetine-protein binding rate (%) (converted)) was 0.503. The fraction unbound at 1 h, 450 ng/mL in data set [1] (450 ng/mL, read-out: Percentage of ammoxetine-protein binding rate (%) (converted)) is 0.45. Moreover, the fraction unbound at 1 h in data set [1] (approximate range over 50-450 ng/mL, read-out: PPB rate) fell in the range of 0.4 to 0.5. Besides, the half-maximal inhibitory concentration (IC50) in data set [2] and in data set [3] was over 100 µM throughout. For the same molecule, the Transformation ratio% in data set [4] is 13.02±7.14%; in data set [5] it was 24.49±3.65% and 24.49%. For the same molecule, the “residuary concentration of ammoxetine, Mean±SD” value stood at 5.96±0.49 in data set [4] and 5.18±0.25 in data set [5].
